# In patent US7985731B2, “Sugar chain added GLP-1 peptide” (Otsuka Chemical Holdings Co., Ltd., priority 2007, dated 2011):
# Peptide text beside a SMILES is read from it. * marks the point of attachment. X1 = CC(=O)N[C@@H]1[C@@H](O)[C@H](O[C@@H]2O[C@H](CO)[C@@H](O[C@@H]3O[C@H](CO[C@H]4O[C@H](CO)[C@@H](O)[C@H](O)[C@@H]4O[C@@H]4O[C@H](CO)[C@@H](O[C@@H]5O[C@H](CO[C@]6(C(=O)O)C[C@H](O)[C@@H](NC(C)=O)[C@H]([C@H](O)[C@H](O)CO)O6)[C@H](O)[C@H](O)[C@H]5O)[C@H](O)[C@H]4NC(C)=O)[C@@H](O)[C@H](O[C@H]4O[C@H](CO)[C@@H](O)[C@H](O)[C@@H]4O[C@@H]4O[C@H](CO)[C@@H](O[C@@H]5O[C@H](CO[C@]6(C(=O)O)C[C@H](O)[C@@H](NC(C)=O)[C@H]([C@H](O)[C@H](O)CO)O6)[C@H](O)[C@H](O)[C@H]5O)[C@H](O)[C@H]4NC(C)=O)[C@@H]3O)[C@H](O)[C@H]2NC(C)=O)[C@@H](CO)O[C@H]1NC(=O)C*
# Assays:
# C57BL/6JJcl mice = experiment: Test Example 7: Oral Glucose Tolerance Test (OGTT); format: in vivo
# Experimental: After 30 minutes, a glucose solution was orally administered at a dose of 1 mg/g. Blood was collected from the orbits before the glucose administration and 30 minutes, 60 minutes and 120 minutes after the glucose administration. Blood-sugar levels were measured using ACCU-CHEK Aviva (Roche Diagnostics).
# After the oral administration of the glucose solution to the mice fasted overnight, blood was collected over time, and blood-sugar levels were measured.
# The correlation between the oligosaccharide chain structure and the activity was studied in mouse OGTT.
# [1] = system: db/db (BKS.Cg-+Lepr db/+Lepr db/Jcl) mice; experiment: Test Example 8: effect of lowering blood-sugar levels in diabetes model mice; format: in vivo; details: 9 nmol/kg intraperitoneal
# Experimental: The oligosaccharide chain added GLP-1 peptide prepared in Example 2, 3, 4, 21 or 23 or the GLP-1 prepared in Comparative Example 1 in a PBS solution (9 nmol/10 ml) was intraperitoneally administered at a dose of 10 ml/kg to BKS.Cg−+Lepr^db/+Lepr^db/Jcl mice (10 week old, male). Blood was collected from the orbits before the compound administration and 30 minutes, 60 minutes, 120 minutes, 180 minutes and 300 minutes after the compound administration. Blood-sugar levels were measured using ACCU-CHEK Aviva (Roche Diagnostics).
# The db/db (BKS.Cg−+Lepr^db/+Lepr^db/Jcl) mice serving as diabetes model mice have a mutation in a receptor of leptin which is anorexigenic/energy metabolism-accelerating hormone and develops conditions such as obesity or hyperglycemia.
# Blood-sugar levels were measured over time, and their effects of lowering blood-sugar levels were compared with that of the GLP-1 without oligosaccharide chain addition of Comparative Example 1.
# [2] = 9 nmol/kg intraperitoneal 30 minutes before glucose 1 mg/g oral
SMILES,effect of suppressing rise in blood-sugar levels in OGTT (C57BL/6JJcl mice; [2]),efficacy relative to 30Cys GLP-1-disialo and 36Cys GLP-1-disialo at the same dose in OGTT (C57BL/6JJcl mice; 0.9 nmol/kg intraperitoneal),dose dependence of activity of suppressing rise in blood-sugar levels in OGTT (C57BL/6JJcl mice; doses 0.9 nmol/kg and 0.09 nmol/kg intraperitoneal),effect of lowering blood-sugar levels in db/db mice ([1]; 10-week-old male mice),durability of effect of lowering blood-sugar levels in db/db mice ([1]; up to 300 minutes),effect of suppressing rise in blood-sugar levels in OGTT (C57BL/6JJcl mice; 0.9 nmol/kg intraperitoneal),"activity of suppressing rise in blood-sugar levels in OGTT relative to GLP-1 (times) (C57BL/6JJcl mice; from doses giving equivalent effect, GLP-1 at 9 nmol/kg)"
"CC[C@H](C)[C@H](NC(=O)[C@H](Cc1ccccc1)NC(=O)[C@H](CCC(=O)O)NC(=O)[C@H](CCCCN)NC(=O)[C@H](C)NC(=O)[C@H](C)NC(=O)[C@H](CCC(N)=O)NC(=O)CNC(=O)[C@H](CCC(=O)O)NC(=O)[C@H](CC(C)C)NC(=O)[C@H](Cc1ccc(O)cc1)NC(=O)[C@H](CSCC(=O)N[C@@H]1O[C@H](CO)[C@@H](O[C@@H]2O[C@H](CO)[C@@H](O[C@@H]3O[C@H](CO[C@H]4O[C@H](CO)[C@@H](O)[C@H](O)[C@@H]4O[C@@H]4O[C@H](CO)[C@@H](O[C@@H]5O[C@H](CO[C@]6(C(=O)O)C[C@H](O)[C@@H](NC(C)=O)[C@H]([C@H](O)[C@H](O)CO)O6)[C@H](O)[C@H](O)[C@H]5O)[C@H](O)[C@H]4NC(C)=O)[C@@H](O)[C@H](O[C@H]4O[C@H](CO)[C@@H](O)[C@H](O)[C@@H]4O[C@@H]4O[C@H](CO)[C@@H](O[C@@H]5O[C@H](CO[C@]6(C(=O)O)C[C@H](O)[C@@H](NC(C)=O)[C@H]([C@H](O)[C@H](O)CO)O6)[C@H](O)[C@H](O)[C@H]5O)[C@H](O)[C@H]4NC(C)=O)[C@@H]3O)[C@H](O)[C@H]2NC(C)=O)[C@H](O)[C@H]1NC(C)=O)NC(=O)[C@H](CO)NC(=O)[C@@H](NC(=O)[C@H](CC(=O)O)NC(=O)[C@H](CO)NC(=O)[C@@H](NC(=O)[C@H](Cc1ccccc1)NC(=O)[C@@H](NC(=O)CNC(=O)[C@H](CCC(=O)O)NC(=O)[C@H](C)NC(=O)[C@@H](N)Cc1c[nH]cn1)[C@@H](C)O)[C@@H](C)O)C(C)C)C(=O)N[C@@H](C)C(=O)N[C@@H](Cc1c[nH]c2ccccc12)C(=O)N[C@@H](CC(C)C)C(=O)N[C@H](C(=O)N[C@@H](CCCCN)C(=O)NCC(=O)N[C@@H](CCCNC(=N)N)C(=O)NCC(=O)O)C(C)C [Example 1, 18Cys GLP-1-disialo] (H-HAEGTFTSDVSC(X1)YLEGQAAKEFIAWLVKGRG-OH)",strong effect of suppressing rise in blood-sugar levels,–,–,–,–,–,–
"CC[C@H](C)[C@H](NC(=O)[C@H](Cc1ccccc1)NC(=O)[C@H](CCC(=O)O)NC(=O)[C@H](CSCC(=O)N[C@@H]1O[C@H](CO)[C@@H](O[C@@H]2O[C@H](CO)[C@@H](O[C@@H]3O[C@H](CO[C@H]4O[C@H](CO)[C@@H](O)[C@H](O)[C@@H]4O[C@@H]4O[C@H](CO)[C@@H](O[C@@H]5O[C@H](CO[C@]6(C(=O)O)C[C@H](O)[C@@H](NC(C)=O)[C@H]([C@H](O)[C@H](O)CO)O6)[C@H](O)[C@H](O)[C@H]5O)[C@H](O)[C@H]4NC(C)=O)[C@@H](O)[C@H](O[C@H]4O[C@H](CO)[C@@H](O)[C@H](O)[C@@H]4O[C@@H]4O[C@H](CO)[C@@H](O[C@@H]5O[C@H](CO[C@]6(C(=O)O)C[C@H](O)[C@@H](NC(C)=O)[C@H]([C@H](O)[C@H](O)CO)O6)[C@H](O)[C@H](O)[C@H]5O)[C@H](O)[C@H]4NC(C)=O)[C@@H]3O)[C@H](O)[C@H]2NC(C)=O)[C@H](O)[C@H]1NC(C)=O)NC(=O)[C@H](C)NC(=O)[C@H](C)NC(=O)[C@H](CCC(N)=O)NC(=O)CNC(=O)[C@H](CCC(=O)O)NC(=O)[C@H](CC(C)C)NC(=O)[C@H](Cc1ccc(O)cc1)NC(=O)[C@H](CO)NC(=O)[C@H](CO)NC(=O)[C@@H](NC(=O)[C@H](CC(=O)O)NC(=O)[C@H](CO)NC(=O)[C@@H](NC(=O)[C@H](Cc1ccccc1)NC(=O)[C@@H](NC(=O)CNC(=O)[C@H](CCC(=O)O)NC(=O)[C@H](C)NC(=O)[C@@H](N)Cc1c[nH]cn1)[C@@H](C)O)[C@@H](C)O)C(C)C)C(=O)N[C@@H](C)C(=O)N[C@@H](Cc1c[nH]c2ccccc12)C(=O)N[C@@H](CC(C)C)C(=O)N[C@H](C(=O)N[C@@H](CCCCN)C(=O)NCC(=O)N[C@@H](CCCNC(=N)N)C(=O)NCC(=O)O)C(C)C [Example 3, 26Cys GLP-1-disialo]",strong effect of suppressing rise in blood-sugar levels,about ½,dose-dependent activity of suppressing rise in blood-sugar levels,strong effect of lowering blood-sugar levels,effects of lowering blood-sugar levels were slightly weakened over time,–,–
"CC[C@H](C)[C@H](NC(=O)[C@H](Cc1ccccc1)NC(=O)[C@H](CCC(=O)O)NC(=O)[C@H](CCCCN)NC(=O)[C@H](C)NC(=O)[C@H](C)NC(=O)[C@H](CCC(N)=O)NC(=O)CNC(=O)[C@H](CCC(=O)O)NC(=O)[C@H](CSCC(=O)N[C@@H]1O[C@H](CO)[C@@H](O[C@@H]2O[C@H](CO)[C@@H](O[C@@H]3O[C@H](CO[C@H]4O[C@H](CO)[C@@H](O)[C@H](O)[C@@H]4O[C@@H]4O[C@H](CO)[C@@H](O[C@@H]5O[C@H](CO[C@]6(C(=O)O)C[C@H](O)[C@@H](NC(C)=O)[C@H]([C@H](O)[C@H](O)CO)O6)[C@H](O)[C@H](O)[C@H]5O)[C@H](O)[C@H]4NC(C)=O)[C@@H](O)[C@H](O[C@H]4O[C@H](CO)[C@@H](O)[C@H](O)[C@@H]4O[C@@H]4O[C@H](CO)[C@@H](O[C@@H]5O[C@H](CO[C@]6(C(=O)O)C[C@H](O)[C@@H](NC(C)=O)[C@H]([C@H](O)[C@H](O)CO)O6)[C@H](O)[C@H](O)[C@H]5O)[C@H](O)[C@H]4NC(C)=O)[C@@H]3O)[C@H](O)[C@H]2NC(C)=O)[C@H](O)[C@H]1NC(C)=O)NC(=O)[C@H](Cc1ccc(O)cc1)NC(=O)[C@H](CO)NC(=O)[C@H](CO)NC(=O)[C@@H](NC(=O)[C@H](CC(=O)O)NC(=O)[C@H](CO)NC(=O)[C@@H](NC(=O)[C@H](Cc1ccccc1)NC(=O)[C@@H](NC(=O)CNC(=O)[C@H](CCC(=O)O)NC(=O)[C@H](C)NC(=O)[C@@H](N)Cc1c[nH]cn1)[C@@H](C)O)[C@@H](C)O)C(C)C)C(=O)N[C@@H](C)C(=O)N[C@@H](Cc1c[nH]c2ccccc12)C(=O)N[C@@H](CC(C)C)C(=O)N[C@H](C(=O)N[C@@H](CCCCN)C(=O)NCC(=O)N[C@@H](CCCNC(=N)N)C(=O)NCC(=O)O)C(C)C [Example 16, 20Cys GLP-1-disialo] (H-HAEGTFTSDVSSYC(X1)EGQAAKEFIAWLVKGRG-OH)",strong effect of suppressing rise in blood-sugar levels,–,–,–,–,–,–
"CC[C@H](C)[C@H](NC(=O)[C@H](Cc1ccccc1)NC(=O)[C@H](CCC(=O)O)NC(=O)[C@H](CCCCN)NC(=O)[C@H](C)NC(=O)[C@H](C)NC(=O)[C@H](CCC(N)=O)NC(=O)CNC(=O)[C@H](CCC(=O)O)NC(=O)[C@H](CC(C)C)NC(=O)[C@H](Cc1ccc(O)cc1)NC(=O)[C@H](CSCC(=O)N[C@@H]1O[C@H](CO)[C@@H](O[C@@H]2O[C@H](CO)[C@@H](O[C@@H]3O[C@H](CO[C@H]4O[C@H](CO)[C@@H](O)[C@H](O)[C@@H]4O[C@@H]4O[C@H](CO)[C@@H](O[C@@H]5O[C@H](CO[C@]6(C(=O)O)C[C@H](O)[C@@H](NC(C)=O)[C@H]([C@H](O)[C@H](O)CO)O6)[C@H](O)[C@H](O)[C@H]5O)[C@H](O)[C@H]4NC(C)=O)[C@@H](O)[C@H](O[C@H]4O[C@H](CO)[C@@H](O)[C@H](O)[C@@H]4O[C@@H]4O[C@H](CO)[C@@H](O[C@@H]5O[C@H](CO[C@]6(C(=O)O)C[C@H](O)[C@@H](NC(C)=O)[C@H]([C@H](O)[C@H](O)CO)O6)[C@H](O)[C@H](O)[C@H]5O)[C@H](O)[C@H]4NC(C)=O)[C@@H]3O)[C@H](O)[C@H]2NC(C)=O)[C@H](O)[C@H]1NC(C)=O)NC(=O)[C@H](CO)NC(=O)[C@@H](NC(=O)[C@H](CC(=O)O)NC(=O)[C@H](CO)NC(=O)[C@@H](NC(=O)[C@H](Cc1ccccc1)NC(=O)[C@@H](NC(=O)CNC(=O)[C@H](CCC(=O)O)NC(=O)[C@H](C)NC(=O)[C@@H](N)Cc1c[nH]cn1)[C@@H](C)O)[C@@H](C)O)C(C)C)C(=O)N[C@@H](C)C(=O)N[C@@H](Cc1c[nH]c2ccccc12)C(=O)N[C@@H](CC(C)C)C(=O)N[C@H](C(=O)N[C@@H](CCCCN)C(=O)NCC(=O)N[C@@H](CSCC(=O)N[C@@H]1O[C@H](CO)[C@@H](O[C@@H]2O[C@H](CO)[C@@H](O[C@@H]3O[C@H](CO[C@H]4O[C@H](CO)[C@@H](O)[C@H](O)[C@@H]4O[C@@H]4O[C@H](CO)[C@@H](O[C@@H]5O[C@H](CO[C@]6(C(=O)O)C[C@H](O)[C@@H](NC(C)=O)[C@H]([C@H](O)[C@H](O)CO)O6)[C@H](O)[C@H](O)[C@H]5O)[C@H](O)[C@H]4NC(C)=O)[C@@H](O)[C@H](O[C@H]4O[C@H](CO)[C@@H](O)[C@H](O)[C@@H]4O[C@@H]4O[C@H](CO)[C@@H](O[C@@H]5O[C@H](CO[C@]6(C(=O)O)C[C@H](O)[C@@H](NC(C)=O)[C@H]([C@H](O)[C@H](O)CO)O6)[C@H](O)[C@H](O)[C@H]5O)[C@H](O)[C@H]4NC(C)=O)[C@@H]3O)[C@H](O)[C@H]2NC(C)=O)[C@H](O)[C@H]1NC(C)=O)C(=O)NCC(=O)O)C(C)C [Example 49, 18,36Cys GLP-1-disialo]",effect almost equivalent to that of the 36Cys GLP-1-disialo,–,–,–,–,almost equivalent to that of the GLP-1 at a dose of 9 nmol/kg,about 10 times
